Key:
Type in all cases: cell-based
[1] = test system: DENV-1 Djibouti strain D1/H/IMTSSA/98/606; assay: Tetravalent RT-qPCR assay Protocol B, serotype 1; conditions: Dengue virus, DENV1, 168 h, RT-qPCR serotype 1 Djibouti, Vero cells, 7 days
Protocol: (§1) Vero cells (4×10^4) were seeded in 96-well plates. After one day, cell culture medium was replaced with 100 μL assay medium containing a 2×, 3× or 5× serial dilution of the compound (concentration range: 50 μg/mL-0.00038 μg/mL, 50 μg/mL-0.0076 μg/mL, and 50 μg/mL-0.00013 μg/mL, respectively) and 100 μL of dengue virus dilution, where a Ct of ˜20 is achieved in RTqPCR. Following a 2 hour incubation period, the cell monolayer was washed 3 times with assay medium to remove residual, non-adsorbed virus and cultures were further incubated for either 4 days (DENV-2 NGC-Tongalike) or 7 days (DENV-1 Djibouti strain D1/H/IMTSSA/98/606, DENV-3 strain H87 prototype, DENV-4 strain H241) in the presence of the inhibitor. Supernatant was harvested and viral RNA load was determined by real-time quantitative RT-PCR. The 50% effective concentration (EC50), which is defined as the compound concentration that is required to inhibit viral RNA replication by 50%, was determined using logarithmic interpolation (Tables 7 and 8).
(§2) RNA was isolated from 100 μL supernatant with the NucleoSpin 96 Virus kit (Filter Service, Düren, Germany) as described by the manufacturer. The sequences of the TaqMan primers (DENV-For, DENV-Rev; Table 5) and TaqMan probes (DENV-Probe Table 5) were selected from non-structural gene 3 (NS3) or NSS, of the respective flaviviruses using Primer Express software (version 2.0; Applied Biosystems, Lennik, Belgium). The TaqMan probe was fluorescently labelled with 6-carboxyfluorescein (FAM) at the 5′ end as the reporter dye, and with minor groove binder (MGB) at the 3′ end as the quencher (Table 5). One-step, quantitative RT-PCR was performed in a total volume of 25 μL, containing 13.9375 μL H2O, 6.25 μL master mix (Eurogentec, Seraing, Belgium), 0.375 μL forward primer, 0.375 μL reverse primer, 1 μL probe, 0.0625 μL reverse transcriptase (Eurogentec) and 3 μL sample. RT-PCR was performed using the ABI 7500 Fast Real-Time PCR System (Applied Biosystems, Branchburg, N.J., USA) using the following conditions: 30 min at 48° C. and 10 min at 95° C., followed by 40 cycles of 15 s at 95° C. and 1 min at 60° C. The data was analyzed using the ABI PRISM 7500 SDS software (version 1.3.1; Applied Biosystems). For absolute quantification, standard curves were generated using 10-fold dilutions of template preparations of known concentrations.

[2] = test system: DENV-3 strain H87 prototype; assay: Tetravalent RT-qPCR assay Protocol B, serotype 3; conditions: Dengue virus, DENV3, 168 h, RT-qPCR serotype 3 H87, Vero cells, 7 days
Protocol: as §1, §2

DENV-4 strain H241 = assay: Tetravalent RT-qPCR assay Protocol A, serotype 4 H241; conditions: Dengue virus, DENV4, 72 h, RT-qPCR serotype 4 H241, Vero cells, 3 days
Protocol: The antiviral activity of the compounds of the invention was tested against DENV-1 strain TC974#666 (NCPV), DENV-2 strain 16681, DENV-3 strain H87 (NCPV) and DENV-4 strains H241 (NCPV) and EDEN (SG/06K2270DK1/2005; GenBank accession number QG398256) in a RT-qPCR assay. Therefore, Vero cells were infected with either DENV-1, or -2, or -3, or -4 in the presence or absence of test compounds. At day 3 post-infection, the cells were lysed and cell lysates were used to prepare cDNA of both a viral target (the 3′UTR of DENV; table 2) and a cellular reference gene (β-actin, table 2). Subsequently, a duplex real time PCR was performed on a Lightcycler480 instrument. The generated Cp value is inversely proportional to the amount of RNA expression of these targets. Inhibition of DENV replication by a test compound result in a shift of Cp's for the 3′UTR gene. On the other hand, if a test compound is toxic to the cells, a similar effect on β-actin expression will be observed. The comparative ΔΔCp method is used to calculate EC50, which is based on the relative gene expression of the target gene (3′UTR) normalized with the cellular housekeeping gene (β-actin). In addition, CC50 values were determined based on the Cp values acquired for the housekeeping gene β-actin.
The culture medium consisted of minimal essential medium supplemented with 2% of heat-inactivated fetal calf serum, 0.04% gentamycin (50 mg/mL) and 2 mM of L-glutamine. Vero cells, obtained from ECACC, were suspended in culture medium and 75 μL/well was added in 96-well plates (10000 cells/well), which already contain the antiviral compounds. Typically, these plates contain a 4-fold serial dilution of 9 dilution steps of the test compound at 200 times the final concentration in 100% DMSO (500 nL; final concentration range: 25 μM-0.00038 μM). In addition, each plate contains wells which are assigned as virus controls (containing cells and virus in the absence of compound) and cell controls (containing cells in the absence of virus and compound). Once the cells were added in the plates, the plates were incubated in a fully humidified incubator (37° C., 5% CO2) until the next day. Then, DENV-1 strain TC974#666, DENV-2 strain 16681, DENV-3 strain H87 or DENV-4 strains H241 or EDEN were added. […] In parallel, 25 μL of culture medium was added to the cell controls. Next, the plates were incubated for 3 days in a fully humidified incubator (37° C., 5% CO2). After 3 days, the supernatant was removed from the wells and the cells were washed twice with ice-cold PBS (˜100 μL). The cell pellets within the 96-well plates were stored at −80° C. for at least 1 day. Next, RNA was extracted using the Cells-to-CT™ lysis kit, according to the manufacture's guideline (Applied Biosystems). The cell lysates can be stored at −80° C. or immediately used in the reverse transcription step.
In preparation of the reverse transcription step, mix A (table 3A) was prepared and 7.57 μL/well was dispensed in a 96-well plate. After addition of 5 μL of the cell lysates, a five minute denaturation step at 75° C. was performed (table 3B). Afterwards, 7.43 μL of mix B was added (table 3C) and the reverse transcription step was initiated (table 3D) to generate cDNA.
Finally, a RT-qPCR mix was prepared, mix C (table 4A), dispensed in 96-well LightCycler qPCR plates to which 3 μL of cDNA was added and the qPCR was performed according to the conditions in table 4B on a LightCycler 480.
Using the LightCycler software and an in-house LIMS system, dose response curves for each compound were calculated and the half maximal effective concentration (EC50) and the half maximal cytotoxic concentration (CC50) were determined (Tables 6-9).

Row | Compound | EC50 [1] [nM] | EC50 [2] [nM] | EC50 (DENV-4 strain H241) [nM]
1 | COc1cc(NC(C(=O)c2c[nH]c3cc(F)c(F)cc23)c2ccc(Cl)cc2OC)cc(OCCO)c1 (single isomer, unassigned) [Compound 9A, 2-(4-chloro-2-methoxyphenyl)-1-(5,6-difluoro-1H-indol-3-yl)-2-((3-(2-hydroxyethoxy)-5-methoxyphenyl)amino)ethanone] | 19 | 18 | 240
2 | COc1cc(NC(C(=O)c2c[nH]c3c(C)cc(F)cc23)c2ccc(Cl)cc2OC)cc(OCCO)c1 (single isomer, unassigned) [Compound 8A, 2-(4-chloro-2-methoxyphenyl)-1-(5-fluoro-7-methyl-1H-indol-3-yl)-2-((3-(2-hydroxyethoxy)-5-methoxyphenyl)amino)ethanone] | 17 | 32 | 300
3 | COc1cc(NC(C(=O)c2c[nH]c3c(F)cc(C)cc23)c2ccc(Cl)cc2OC)cc(OCCO)c1 (single isomer, unassigned) [Compound 10A, 2-(4-chloro-2-methoxyphenyl)-1-(7-fluoro-5-methyl-1H-indol-3-yl)-2-((3-(2-hydroxyethoxy)-5-methoxyphenyl)amino)ethanone] | 20 | 27 | 320
4 | COc1cc(NC(C(=O)c2c[nH]c3cc(Cl)ccc23)c2ccc(Cl)cc2OC)cc(OCCO)c1 (single isomer, unassigned) [Compound 4A, 1-(6-chloro-1H-indol-3-yl)-2-(4-chloro-2-methoxyphenyl)-2-((3-(2-hydroxyethoxy)-5-methoxyphenyl)amino)ethanone] | 20 | 29 | 240
5 | COc1cc(NC(C(=O)c2c[nH]c3c(F)c(F)ccc23)c2ccc(Cl)cc2OC)cc(OCCO)c1 (single isomer, unassigned) [Compound 11B, 2-(4-chloro-2-methoxyphenyl)-1-(6,7-difluoro-1H-indol-3-yl)-2-((3-(2-hydroxyethoxy)-5-methoxyphenyl)amino)ethanone] | 25 | 26 | 350
6 | COc1cc(NC(C(=O)c2c[nH]c3cc(F)ccc23)c2ccc(Cl)cc2OC)cc(OCCO)c1 (single isomer, unassigned) [Compound 1A, 2-(4-chloro-2-methoxyphenyl)-1-(6-fluoro-1H-indol-3-yl)-2-((3-(2-hydroxyethoxy)-5-methoxyphenyl)amino)ethanone] | 22 | < 15 | 240
7 | COc1cc(NC(C(=O)c2c[nH]c3c(C)c(F)ccc23)c2ccc(Cl)cc2OC)cc(OCCO)c1 (single isomer, unassigned) [Compound 2A, 2-(4-chloro-2-methoxyphenyl)-1-(6-fluoro-7-methyl-1H-indol-3-yl)-2-((3-(2-hydroxyethoxy)-5-methoxyphenyl)amino)ethanone] | 17 | 21 | 260
8 | COc1cc(NC(C(=O)c2c[nH]c3cc(OC)c(F)cc23)c2ccc(Cl)cc2OC)cc(OCCO)c1 (single isomer, unassigned) [Compound 7A, 2-(4-chloro-2-methoxyphenyl)-1-(5-fluoro-6-methoxy-1H-indol-3-yl)-2-((3-(2-hydroxyethoxy)-5-methoxyphenyl)amino)ethanone] | 20 | < 17 | 230
9 | COc1cc(NC(C(=O)c2c[nH]c3c(C)c(Cl)ccc23)c2ccc(Cl)cc2OC)cc(OCCO)c1 (single isomer, unassigned) [Compound 3A, 2-(4-chloro-2-methoxyphenyl)-1-(6-chloro-7-methyl-1H-indol-3-yl)-2-((3-(2-hydroxyethoxy)-5-methoxyphenyl)amino)ethanone] | 18 | 20 | 180
10 | COc1cc(NC(C(=O)c2c[nH]c3cc(OC)ccc23)c2ccc(Cl)cc2OC)cc(OCCO)c1 (single isomer, unassigned) [Compound 5A, 2-(4-chloro-2-methoxyphenyl)-2-((3-(2-hydroxyethoxy)-5-methoxyphenyl)amino)-1-(6-methoxy-1H-indol-3-yl)ethanone] | 19 | 25 | 320
11 | COc1cc(NC(C(=O)c2c[nH]c3cc(OC)c(C)cc23)c2ccc(Cl)cc2OC)cc(OCCO)c1 (single isomer, unassigned) [Compound 6A, 2-(4-chloro-2-methoxyphenyl)-2-((3-(2-hydroxyethoxy)-5-methoxyphenyl)amino)-1-(6-methoxy-5-methyl-1H-indol-3-yl)ethanone] | < 15 | < 15 | 84

Reference: patent US9944598B2, “Mono- or di-substituted indole derivatives as dengue viral replication inhibitors” (priority 2014, dated 2018)
